Assays:
[1] = test system: AGS gastric carcinoma cells [heterozygous G12D]; assay: Cancer cell line proliferation (CellTiter-Glo), AGS; type: cell-based; conditions: Homo sapiens, 72 hr treatment, read-out: AGS CTG (EC50)
Method: (§1) The following cancer cell lines were employed: AGS gastric carcinoma [heterozygous G12D](ATCC, CRL-1739); A-427 lung carcinoma [heterozygous G12D](ATCC, HTB-53); ASPC1 pancreatic adenocarcinoma [homozygous G12D](ATCC, CRL-1682) and SW1990 pancreatic adenocarcinoma [homozygous G12D](ATCC CRL-2172). Cell lines were cultured essentially according to ATCC recommendations.
(§2) AGS, A-427, ASPC1, SW1990, and GP2D cells were plated in 96-well tissue culture plates at 4,000 cells/well and incubated at 37° C./5% CO2 for 72 hr in 100 μl of media. 3-fold serial dilutions of each test compound were prepared ranging from 20 μM to 1.02 nM. Each cell line was then treated with test compounds at various concentrations with a final concentration of 0.5% DMSO/well, and then incubated at 37° C./5% CO2 for 72 hr. 100 µl of CellTiter-Glo® Reagent (Promega Corporation, Madison, WI) was added to each well and processed according manufacturer's protocol. Results were analyzed and EC50 values were calculated in GraphPad 7 software.

[2] = test system: A-427 lung carcinoma cells [heterozygous G12D]; assay: Cancer cell line proliferation (CellTiter-Glo), A-427; type: cell-based; conditions: Homo sapiens, A-427 cells, 72 hr treatment, read-out: A427 CTG (EC50)
Method: as §1, §2

KRAS(G12D)/SOS1 = target: T1, KRAS(G12D)/SOS1 (Homo sapiens, UniProt P01116, G12D); assay: KRAS(G12D)/SOS1 homogeneous time-resolved fluorescence (HTRF) assay; type: binding; conditions: absence of GTP; 4° C., 3 hr
T1 construct: purchased Cisbio 63ADK000CB17PEH
Method: Binding of test compounds to KRAS(G12D) target protein, which in turn blocks KRAS(G12D) interaction with the SOS1 protein, was measured in the absences of GTP by homogeneous time-resolved fluorescence using the KRAS-G12D/SOS1 Binding Assay Kit (Cisbio, 63ADK000CB17PEH), following the manufacturer's instructions, except as noted. 3-fold serial dilutions of each test compound were prepared ranging from 20 µM to 1.02 nM. The test compound was mixed and incubated with reaction components, incubated in a sealed plate at 4° C. for 3 hr and fluorescence was measured using a PerkinElmer Envision plate reader. The KRAS(G12D)-SOS1 IC50 values (the concentration of 50% of the maximal inhibition) were calculated using GraphPad Prism 7 software.

T1 sequence (P01116 1-188 isoform P01116-2 G12D): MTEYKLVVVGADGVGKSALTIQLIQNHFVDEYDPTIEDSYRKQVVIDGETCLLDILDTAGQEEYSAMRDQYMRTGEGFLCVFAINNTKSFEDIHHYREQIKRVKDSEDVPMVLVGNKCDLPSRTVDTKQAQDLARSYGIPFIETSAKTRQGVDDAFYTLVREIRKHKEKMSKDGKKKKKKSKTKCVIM

| SMILES | EC50 [1] [µM] | EC50 [2] [µM] | IC50 (KRAS(G12D)/SOS1) [µM] |
| --- | --- | --- | --- |
| CCc1cc(-c2nnc(C(=O)NCC(F)(F)F)n2-c2ccc(CN3CCN([C@H]4C[C@@H](COc5nc(N6CC7CCC(C6)N7)c6cnc(-c7cccc(F)c7C)c(F)c6n5)N(C)C4)CC3)cc2)c(O)cc1O [Compound 79] | 0.1 to 1 | 0.1 to 1 | > 1 |
| C#Cc1cccc2cccc(-c3ncc4c(N5CC6CCC(C5)N6)nc(OC[C@@H]5C[C@H](N6CCN(CCN(CC)C(=O)c7cc(C(C)C)c(O)cc7O)CC6)CN5C)nc4c3F)c12 [Compound 80] | > 1 | > 1 | < 0.1 |
| CCc1cc(-c2nnc(C(=O)NCC(F)(F)F)n2-c2ccc(CN3CCN([C@H]4C[C@@H](COc5nc(N6CC7CCC(C6)N7)c6cnc(-c7cccc(C)c7C)c(F)c6n5)N(C)C4)CC3)cc2)c(O)cc1O [Compound 81] | 0.1 to 1 | 0.1 to 1 | > 1 |
| Cc1cccc(-c2ncc3c(N4CC5CCC(C4)N5)nc(OC[C@@H]4C[C@H](N5CCN(Cc6ccc(-n7c(C(=O)NC(C)C(F)(F)F)nnc7-c7cc(C(C)C)c(O)cc7O)cc6)CC5)CN4C)nc3c2F)c1C (stereo partly drawn) [Compound 82] | 0.1 to 1 | 0.1 to 1 | > 1 |
| CCNC(=O)c1nnc(-c2cc(C(C)C)c(O)cc2O)n1-c1ccc(CN2CCN([C@H]3C[C@@H](COc4nc(N5CC6CNC(C6)C5)c5cnc(-c6cc(O)cc7ccccc67)c(F)c5n4)N(C)C3)CC2)cc1 (stereo partly drawn) [Compound 85] | 0.1 to 1 | 0.1 to 1 | > 1 |
| C#Cc1cccc2cc(O)cc(-c3ncc4c(N5CC6CCC(C5)N6)nc(OC[C@@H]5C[C@H](N6CCN(Cc7ccc8c(c7)CN(C(=O)c7cc(C(C)C)c(O)cc7O)C8)CC6)CN5C)nc4c3F)c12 [Compound 86] | 0.1 to 1 | 0.1 to 1 | < 0.1 |
| C#Cc1cccc2cc(O)cc(-c3ncc4c(N5CC6CCC(C5)N6)nc(OC[C@@H]5C[C@H](N6CCN(Cc7ccc(-n8c(C(=O)NC(C)C)nnc8-c8cc(C(C)C)c(O)cc8O)cc7)CC6)CN5C)nc4c3F)c12 [Compound 87] | 0.1 to 1 | 0.1 to 1 | < 0.1 |
| CC(C)NC(=O)c1nnc(-c2cc(C(C)C)c(O)cc2O)n1-c1ccc(CN2CCN([C@H]3C[C@@H](COc4nc(N5CC6CCC(C5)N6)c5cnc(-c6ccccc6C(F)(F)F)c(F)c5n4)N(C)C3)CC2)cc1 [Compound 88] | < 0.1 | 0.1 to 1 | > 1 |
| CCNC(=O)c1nnc(-c2cc(C(C)C)c(O)cc2O)n1-c1ccc(CN2CCC(C(=O)N3CCN([C@H]4C[C@@H](COc5nc(N6CC7CCC(C6)N7)c6cnc(-c7ccccc7C(F)(F)F)c(F)c6n5)N(C)C4)CC3)CC2)cc1 [Compound 89] | < 0.1 | < 0.1 | > 1 |
| CC(C)c1cc(C(=O)N2Cc3ccc(CN4CCC(C(=O)N5CCN([C@H]6C[C@@H](COc7nc(N8CC9CCC(C8)N9)c8cnc(-c9ccccc9C(F)(F)F)c(F)c8n7)N(C)C6)CC5)CC4)cc3C2)c(O)cc1O [Compound 91] | 0.1 to 1 | 0.1 to 1 | > 1 |
| CC(C)c1cc(C(=O)N2Cc3ccc(CN4CCC(C(=O)N5CCN([C@H]6C[C@@H](COc7nc(N8CC9CCC(C8)N9)c8cnc(-c9cccc%10cccc(F)c9%10)c(F)c8n7)N(C)C6)CC5)CC4)cc3C2)c(O)cc1O [Compound 92] | 0.1 to 1 | 0.1 to 1 | 0.1 to 1 |
| CC(C)c1cc(-c2nnc(C(=O)NC(C)C(F)(F)F)n2-c2ccc(CN3CCN([C@H]4C[C@@H](COc5nc(N6CC7CCC(C6)N7)c6cnc(-c7cccc8cccc(F)c78)c(F)c6n5)N(C)C4)CC3)cc2)c(O)cc1O (stereo partly drawn) [Compound 93] | < 0.1 | 0.1 to 1 | 0.1 to 1 |
| Cc1cccc2cccc(-c3ncc4c(N5CC6CCC(C5)N6)nc(OC[C@@H]5CC[C@H](CN6CCN(C(=O)C7CCN(Cc8ccc9c(c8)CN(C(=O)c8cc(C(C)C)c(O)cc8O)C9)CC7)CC6)N5C)nc4c3F)c12 [Compound 94] | 0.1 to 1 | 0.1 to 1 | 0.1 to 1 |
